Values quoted from earlier work in patent US6395721B1, “Low potency unpreserved sterile topical corticosteroid compositions for dermatitis” (priority 2000, dated 2002).

Experiments:
[1] = test system: skin of human volunteers; set-up: key to Ranking of Topical steroids for Psoriasis (potency group): I: Group 1 is the most potent; potency descends with each group to Group VII; III: potency descends with each group to Group VII; IV: potency descends with each group to Group VII; potency descends with each group to Group VII; potency descends with each group to Group VII; Group VII, which is least potent; details: for potency rating of steroid compositions on a scale of 1 to 7, with 7 being the least potent: rating in words, Cornell and Stoughton; for potency of corticosteroid (in words): as worded for contemplated compositions, aldomethasone and desonide at 0.05%; for Ranking of Topical steroids for Psoriasis (potency group): no significant difference of agents within any given group
[2] = test system: stripped skin; details: applied to stripped skin, which develops erythema

For `C[C@H]1C[C@H]2[C@@H]3CCC4=CC(=O)C=C[C@]4(C)[C@@]3(F)[C@@H](O)C[C@]2(C)[C@@]1(O)C(=O)CCl` [Clobetasol], the “potency rating of steroid compositions on a scale of 1 to 7, with 7 being the least potent” value (“potency rating of steroid compositions” for short) [1] is given as “among the most potent steroids”.

In the case of `C[C@]12CCC(=O)C=C1CC[C@@H]1[C@@H]2C(=O)C[C@@]2(C)[C@H]1CC[C@]2(O)C(=O)CO` [cortisone], the “potency rating of steroid compositions” value [1] is given as “Among the least potent steroids”.

In the case of `CC1(C)O[C@@H]2C[C@H]3[C@@H]4CCC5=CC(=O)C=C[C@]5(C)[C@H]4[C@@H](O)C[C@]3(C)[C@]2(C(=O)CO)O1` [desonide], the “potency of corticosteroid (in words)” value [1] is listed as “intermediate potency” and the “potency rating of steroid compositions” value [1] is listed as “Among the least potent steroids”.

In the case of `CCCC(=O)O[C@]1(C(=O)CO)CC[C@H]2[C@@H]3CCC4=CC(=O)CC[C@]4(C)[C@H]3[C@@H](O)C[C@@]21C` [hydrocortisone butyrate], the “potency rating of steroid compositions” value [1] is given as “Among the least potent steroids”.

For `CCCCC(=O)O[C@]1(C(=O)CO)CC[C@H]2[C@@H]3CCC4=CC(=O)CC[C@]4(C)[C@H]3[C@@H](O)C[C@@]21C` [hydrocortisone valerate], the “potency rating of steroid compositions” value [1] is listed as “Among the least potent steroids”.

In the case of `C[C@]12CCC(=O)C=C1CC[C@@H]1[C@@H]2[C@@H](O)C[C@@]2(C)[C@H]1CC[C@]2(O)C(=O)CO` [hydrocortisone], the “effect on erythema of stripped skin” value [2] is given as “develop blanching”, the “potency rating of steroid compositions” value [1] is given as “Among the least potent steroids” and the “Ranking of Topical steroids for Psoriasis (potency group)” value (shortened to “Ranking of Topical steroids”) [1] is given as “VII”.

For `C[C@]12C=CC(=O)C=C1CC[C@@H]1[C@@H]2[C@@H](O)C[C@@]2(C)[C@H]1CC[C@]2(O)C(=O)CO` [prednisolone], the “Ranking of Topical steroids” value [1] is given as “VII”.

In the case of aldomethasone, the “potency of corticosteroid (in words)” value [1] is given as “low potency”.

For aldomethasone diproprionate, the “potency of corticosteroid (in words)” value [1] is listed as “low potency” and the “potency rating of steroid compositions” value [1] is listed as “Among the least potent steroids”.

In the case of flumethalone, the “Ranking of Topical steroids” value [1] is listed as “VII”.
